Measured values published in patent US20090163461A1, “Ligand for Vesicular Acetylcholine Transporter” (priority 2005, published 2009).

Tests used:
[1] = Tissue distribution of radioactivity after intravenous injection in rats; format: in vivo; conditions: rat
Experimental: From the tail vein of each rat, an injection containing 20 MBq of (−)-[^11C]-o-MeVES (0.2 ml) was administered. At 5 minutes, 15 minutes, 30 minutes, and 60 minutes after administration, the rats were killed by cervical dislocation, and blood was drawn from the heart using a syringe, after which tissues such as the heart, lungs, liver, and brain were extirpated, and the radioactivity in each tissue was measured using a gamma counter. Each tissue was also weighed.

VAChT = assay: PET brain imaging of learning disability model (neurolysis) monkeys and healthy monkeys; format: in vivo, monkey; conditions: 185-740 MBq i.v., images 15 minutes to 60 minutes after administration
Experimental: 185-740 MBq of (−)-[^11C]-o-MeVES was administered to a vein of each of learning disability model monkeys (neurolysis monkeys) created by selectively destroying the p75NTR positive cells (ACh neurons) in the right hemisphere of the brain with 192-Saporin (manufactured by Advanced Targeting Systems) and healthy monkeys, and image data were collected using PET for animals (PET; manufactured by Hamamatsu Photonics K.K., SHR-7700) at 10 seconds to 91 minutes after administration. The image data obtained at 15 minutes to 60 minutes after administration were picturized; the photographs thus obtained are shown in FIG. 4.

VAChT in the brain = biological target: T1, VAChT in the brain (Rattus norvegicus, UniProt Q62666); assay: Rat brain ex vivo autoradiography; format: in vivo; conditions: 110-120 MBq i.v., 15 or 30 minutes after administration
T1 construct: from tissue; host or cells: brain of living rats, tissue counted or sectioned after killing
T1 sequence (Q62666 1-530): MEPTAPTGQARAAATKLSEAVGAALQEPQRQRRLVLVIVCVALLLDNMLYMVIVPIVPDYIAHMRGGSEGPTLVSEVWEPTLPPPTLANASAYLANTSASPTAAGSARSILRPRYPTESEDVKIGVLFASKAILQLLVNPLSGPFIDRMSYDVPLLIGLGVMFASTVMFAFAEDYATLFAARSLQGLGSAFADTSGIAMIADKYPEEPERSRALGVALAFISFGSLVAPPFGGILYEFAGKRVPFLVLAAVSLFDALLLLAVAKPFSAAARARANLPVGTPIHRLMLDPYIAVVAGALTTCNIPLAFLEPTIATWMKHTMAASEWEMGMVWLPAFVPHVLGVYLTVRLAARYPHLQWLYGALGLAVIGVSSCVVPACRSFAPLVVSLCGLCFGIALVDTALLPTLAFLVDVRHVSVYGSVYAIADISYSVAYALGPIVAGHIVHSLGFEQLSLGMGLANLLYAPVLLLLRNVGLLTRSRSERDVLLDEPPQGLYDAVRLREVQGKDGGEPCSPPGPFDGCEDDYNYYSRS
Experimental: To the caudal vein of each rat, 110-120 MBq of (−)-[^11C]-o-MeVES was administered, and the rats were killed by cervical dislocation and had the brain extirpated 15 minutes after administration for the first rat, or 30 minutes after administration for the second rat. The extirpated brain was immediately frozen with dry ice, and a brain section 20 μm in thickness was prepared using a cryomicrotome. The brain section was mounted on a glass plate, this section was dried on a hot plate (60° C.), and images of radioactivity distribution were obtained by radioluminography.

## [11CH3]c1ccccc1C1CCN(C2CCCC[C@H]2O)CC1 (single isomer, unassigned; (-)) [(−)-[^11C]-o-MeVES, (−)-[^11C]-2-(4-(2-methylphenyl)piperidino)cyclohexanol]
[1]; i.v. 20 MBq, blood, 5 min, % of administered radioactivity per gram of tissue, mean ± S.D. n = 4-6
  Radioactivity level blood 5 min: 0.45 ± 0.04%
[1]; i.v. 20 MBq, blood, 15 min, % of administered radioactivity per gram of tissue, mean ± S.D. n = 4-6
  Radioactivity level blood 15 min: 0.27 ± 0.03%
[1]; i.v. 20 MBq, blood, 30 min, % of administered radioactivity per gram of tissue, mean ± S.D. n = 4-6
  Radioactivity level blood 30 min: 0.24 ± 0.02%
[1]; i.v. 20 MBq, blood, 60 min, % of administered radioactivity per gram of tissue, mean ± S.D. n = 4-6
  Radioactivity level blood 60 min: 0.18 ± 0.02%
[1]; i.v. 20 MBq, brain, 5 min, % of administered radioactivity per gram of tissue, mean ± S.D. n = 4-6
  Radioactivity level brain 5 min: 5.47 ± 0.44%
[1]; i.v. 20 MBq, brain, 15 min, % of administered radioactivity per gram of tissue, mean ± S.D. n = 4-6
  Radioactivity level brain 15 min: 4.54 ± 0.54%
[1]; i.v. 20 MBq, brain, 30 min, % of administered radioactivity per gram of tissue, mean ± S.D. n = 4-6
  Radioactivity level brain 30 min: 4.71 ± 0.45%
[1]; i.v. 20 MBq, brain, 60 min, % of administered radioactivity per gram of tissue, mean ± S.D. n = 4-6
  Radioactivity level brain 60 min: 3.86 ± 0.28%
[1]; i.v. 20 MBq, heart, 5 min, % of administered radioactivity per gram of tissue, mean ± S.D. n = 4-6
  Radioactivity level heart 5 min: 3.37 ± 0.30%
[1]; i.v. 20 MBq, heart, 15 min, % of administered radioactivity per gram of tissue, mean ± S.D. n = 4-6
  Radioactivity level heart 15 min: 1.82 ± 0.19%
[1]; i.v. 20 MBq, heart, 30 min, % of administered radioactivity per gram of tissue, mean ± S.D. n = 4-6
  Radioactivity level heart 30 min: 1.52 ± 0.11%
[1]; i.v. 20 MBq, heart, 60 min, % of administered radioactivity per gram of tissue, mean ± S.D. n = 4-6
  Radioactivity level heart 60 min: 0.96 ± 0.02%
[1]; i.v. 20 MBq, kidney, 5 min, % of administered radioactivity per gram of tissue, mean ± S.D. n = 4-6
  Radioactivity level kidney 5 min: 11.10 ± 4.31%
[1]; i.v. 20 MBq, kidney, 15 min, % of administered radioactivity per gram of tissue, mean ± S.D. n = 4-6
  Radioactivity level kidney 15 min: 7.52 ± 0.40%
[1]; i.v. 20 MBq, kidney, 30 min, % of administered radioactivity per gram of tissue, mean ± S.D. n = 4-6
  Radioactivity level kidney 30 min: 6.02 ± 0.09%
[1]; i.v. 20 MBq, kidney, 60 min, % of administered radioactivity per gram of tissue, mean ± S.D. n = 4-6
  Radioactivity level kidney 60 min: 4.15 ± 0.50%
[1]; i.v. 20 MBq, liver, 5 min, % of administered radioactivity per gram of tissue, mean ± S.D. n = 4-6
  Radioactivity level liver 5 min: 2.58 ± 0.23%
[1]; i.v. 20 MBq, liver, 15 min, % of administered radioactivity per gram of tissue, mean ± S.D. n = 4-6
  Radioactivity level liver 15 min: 2.93 ± 0.38%
[1]; i.v. 20 MBq, liver, 30 min, % of administered radioactivity per gram of tissue, mean ± S.D. n = 4-6
  Radioactivity level liver 30 min: 3.22 ± 0.76%
[1]; i.v. 20 MBq, liver, 60 min, % of administered radioactivity per gram of tissue, mean ± S.D. n = 4-6
  Radioactivity level liver 60 min: 3.28 ± 0.32%
[1]; i.v. 20 MBq, lung, 5 min, % of administered radioactivity per gram of tissue, mean ± S.D. n = 4-6
  Radioactivity level lung 5 min: 16.55 ± 2.56%
[1]; i.v. 20 MBq, lung, 15 min, % of administered radioactivity per gram of tissue, mean ± S.D. n = 4-6
  Radioactivity level lung 15 min: 10.38 ± 2.48%
[1]; i.v. 20 MBq, lung, 30 min, % of administered radioactivity per gram of tissue, mean ± S.D. n = 4-6
  Radioactivity level lung 30 min: 8.74 ± 0.34%
[1]; i.v. 20 MBq, lung, 60 min, % of administered radioactivity per gram of tissue, mean ± S.D. n = 4-6
  Radioactivity level lung 60 min: 4.81 ± 0.76%
[1]; i.v. 20 MBq, muscle, 5 min, % of administered radioactivity per gram of tissue, mean ± S.D. n = 4-6
  Radioactivity level muscle 5 min: 1.57 ± 0.27%
[1]; i.v. 20 MBq, muscle, 15 min, % of administered radioactivity per gram of tissue, mean ± S.D. n = 4-6
  Radioactivity level muscle 15 min: 1.42 ± 0.44%
[1]; i.v. 20 MBq, muscle, 30 min, % of administered radioactivity per gram of tissue, mean ± S.D. n = 4-6
  Radioactivity level muscle 30 min: 1.18 ± 0.24%
[1]; i.v. 20 MBq, muscle, 60 min, % of administered radioactivity per gram of tissue, mean ± S.D. n = 4-6
  Radioactivity level muscle 60 min: 1.00 ± 0.16%
[1]; i.v. 20 MBq, pancreas, 5 min, % of administered radioactivity per gram of tissue, mean ± S.D. n = 4-6
  Radioactivity level pancreas 5 min: 8.44 ± 1.93%
[1]; i.v. 20 MBq, pancreas, 15 min, % of administered radioactivity per gram of tissue, mean ± S.D. n = 4-6
  Radioactivity level pancreas 15 min: 12.13 ± 2.23%
[1]; i.v. 20 MBq, pancreas, 30 min, % of administered radioactivity per gram of tissue, mean ± S.D. n = 4-6
  Radioactivity level pancreas 30 min: 11.53 ± 2.67%
[1]; i.v. 20 MBq, pancreas, 60 min, % of administered radioactivity per gram of tissue, mean ± S.D. n = 4-6
  Radioactivity level pancreas 60 min: 10.67 ± 1.22%
[1]; i.v. 20 MBq, small intestine, 5 min, % of administered radioactivity per gram of tissue, mean ± S.D. n = 4-6
  Radioactivity level small intestine 5 min: 6.19 ± 0.58%
[1]; i.v. 20 MBq, small intestine, 15 min, % of administered radioactivity per gram of tissue, mean ± S.D. n = 4-6
  Radioactivity level small intestine 15 min: 8.76 ± 1.66%
[1]; i.v. 20 MBq, small intestine, 30 min, % of administered radioactivity per gram of tissue, mean ± S.D. n = 4-6
  Radioactivity level small intestine 30 min: 8.48 ± 1.85%
[1]; i.v. 20 MBq, small intestine, 60 min, % of administered radioactivity per gram of tissue, mean ± S.D. n = 4-6
  Radioactivity level small intestine 60 min: 8.90 ± 0.50%
[1]; i.v. 20 MBq, spleen, 5 min, % of administered radioactivity per gram of tissue, mean ± S.D. n = 4-6
  Radioactivity level spleen 5 min: 4.97 ± 1.06%
[1]; i.v. 20 MBq, spleen, 15 min, % of administered radioactivity per gram of tissue, mean ± S.D. n = 4-6
  Radioactivity level spleen 15 min: 5.90 ± 0.51%
[1]; i.v. 20 MBq, spleen, 30 min, % of administered radioactivity per gram of tissue, mean ± S.D. n = 4-6
  Radioactivity level spleen 30 min: 5.56 ± 0.52%
[1]; i.v. 20 MBq, spleen, 60 min, % of administered radioactivity per gram of tissue, mean ± S.D. n = 4-6
  Radioactivity level spleen 60 min: 4.24 ± 0.35%
[1]; i.v., 5-60 min
  brain accumulation: retainable
  organ accumulation / exposure: no organs showing particularly high accumulation
VAChT; healthy monkeys
  RI accumulation in healthy monkeys (PET): no change in the accumulation
VAChT; neurolysis monkeys
  RI accumulation in the cerebral cortex on the neurolysis side compared to the healthy side (PET): significant reduction in RI accumulation
VAChT in the brain
  local distribution in the brain (autoradiography): agreed well with the in vitro local distribution of (−)-[^3H]-vesamicol
